Data: ChEMBL document CHEMBL5316287 (J Med Chem, 2023)

Key:
[1] = 1-Octanol/PBS partition coefficient, logD of the compound at pH 7.4 incubated for 30 mins by shake flask technique based HPLC-LC/MS analysis; assay type: physicochemical
[2] = Metabolic stability in human liver microsomes assessed as intrinsic clearance at 1 uM; assay type: ADME, Microsome
[3] = Half life in BALB/cAnNCrlCrlj mouse at 10 mg/kg,po; assay type: ADME, organism-based; settings: in vivo
[4] = AUC in BALB/cAnNCrlCrlj mouse at 10 mg/kg,po; assay type: ADME, organism-based; set-up: dose 10 mg/kg, route po; settings: in vivo
[5] = biological target: T1, Histone acetyltransferase p300 (Homo sapiens, UniProt Q09472); assay: Inhibition of EP300 in human LK2 cells assessed as reduction in intracellular H3K27 acetylation incubated for 3 hrs by chemiluminescence based ELISA; assay type: cell-based
T1 sequence (Q09472 whole entry): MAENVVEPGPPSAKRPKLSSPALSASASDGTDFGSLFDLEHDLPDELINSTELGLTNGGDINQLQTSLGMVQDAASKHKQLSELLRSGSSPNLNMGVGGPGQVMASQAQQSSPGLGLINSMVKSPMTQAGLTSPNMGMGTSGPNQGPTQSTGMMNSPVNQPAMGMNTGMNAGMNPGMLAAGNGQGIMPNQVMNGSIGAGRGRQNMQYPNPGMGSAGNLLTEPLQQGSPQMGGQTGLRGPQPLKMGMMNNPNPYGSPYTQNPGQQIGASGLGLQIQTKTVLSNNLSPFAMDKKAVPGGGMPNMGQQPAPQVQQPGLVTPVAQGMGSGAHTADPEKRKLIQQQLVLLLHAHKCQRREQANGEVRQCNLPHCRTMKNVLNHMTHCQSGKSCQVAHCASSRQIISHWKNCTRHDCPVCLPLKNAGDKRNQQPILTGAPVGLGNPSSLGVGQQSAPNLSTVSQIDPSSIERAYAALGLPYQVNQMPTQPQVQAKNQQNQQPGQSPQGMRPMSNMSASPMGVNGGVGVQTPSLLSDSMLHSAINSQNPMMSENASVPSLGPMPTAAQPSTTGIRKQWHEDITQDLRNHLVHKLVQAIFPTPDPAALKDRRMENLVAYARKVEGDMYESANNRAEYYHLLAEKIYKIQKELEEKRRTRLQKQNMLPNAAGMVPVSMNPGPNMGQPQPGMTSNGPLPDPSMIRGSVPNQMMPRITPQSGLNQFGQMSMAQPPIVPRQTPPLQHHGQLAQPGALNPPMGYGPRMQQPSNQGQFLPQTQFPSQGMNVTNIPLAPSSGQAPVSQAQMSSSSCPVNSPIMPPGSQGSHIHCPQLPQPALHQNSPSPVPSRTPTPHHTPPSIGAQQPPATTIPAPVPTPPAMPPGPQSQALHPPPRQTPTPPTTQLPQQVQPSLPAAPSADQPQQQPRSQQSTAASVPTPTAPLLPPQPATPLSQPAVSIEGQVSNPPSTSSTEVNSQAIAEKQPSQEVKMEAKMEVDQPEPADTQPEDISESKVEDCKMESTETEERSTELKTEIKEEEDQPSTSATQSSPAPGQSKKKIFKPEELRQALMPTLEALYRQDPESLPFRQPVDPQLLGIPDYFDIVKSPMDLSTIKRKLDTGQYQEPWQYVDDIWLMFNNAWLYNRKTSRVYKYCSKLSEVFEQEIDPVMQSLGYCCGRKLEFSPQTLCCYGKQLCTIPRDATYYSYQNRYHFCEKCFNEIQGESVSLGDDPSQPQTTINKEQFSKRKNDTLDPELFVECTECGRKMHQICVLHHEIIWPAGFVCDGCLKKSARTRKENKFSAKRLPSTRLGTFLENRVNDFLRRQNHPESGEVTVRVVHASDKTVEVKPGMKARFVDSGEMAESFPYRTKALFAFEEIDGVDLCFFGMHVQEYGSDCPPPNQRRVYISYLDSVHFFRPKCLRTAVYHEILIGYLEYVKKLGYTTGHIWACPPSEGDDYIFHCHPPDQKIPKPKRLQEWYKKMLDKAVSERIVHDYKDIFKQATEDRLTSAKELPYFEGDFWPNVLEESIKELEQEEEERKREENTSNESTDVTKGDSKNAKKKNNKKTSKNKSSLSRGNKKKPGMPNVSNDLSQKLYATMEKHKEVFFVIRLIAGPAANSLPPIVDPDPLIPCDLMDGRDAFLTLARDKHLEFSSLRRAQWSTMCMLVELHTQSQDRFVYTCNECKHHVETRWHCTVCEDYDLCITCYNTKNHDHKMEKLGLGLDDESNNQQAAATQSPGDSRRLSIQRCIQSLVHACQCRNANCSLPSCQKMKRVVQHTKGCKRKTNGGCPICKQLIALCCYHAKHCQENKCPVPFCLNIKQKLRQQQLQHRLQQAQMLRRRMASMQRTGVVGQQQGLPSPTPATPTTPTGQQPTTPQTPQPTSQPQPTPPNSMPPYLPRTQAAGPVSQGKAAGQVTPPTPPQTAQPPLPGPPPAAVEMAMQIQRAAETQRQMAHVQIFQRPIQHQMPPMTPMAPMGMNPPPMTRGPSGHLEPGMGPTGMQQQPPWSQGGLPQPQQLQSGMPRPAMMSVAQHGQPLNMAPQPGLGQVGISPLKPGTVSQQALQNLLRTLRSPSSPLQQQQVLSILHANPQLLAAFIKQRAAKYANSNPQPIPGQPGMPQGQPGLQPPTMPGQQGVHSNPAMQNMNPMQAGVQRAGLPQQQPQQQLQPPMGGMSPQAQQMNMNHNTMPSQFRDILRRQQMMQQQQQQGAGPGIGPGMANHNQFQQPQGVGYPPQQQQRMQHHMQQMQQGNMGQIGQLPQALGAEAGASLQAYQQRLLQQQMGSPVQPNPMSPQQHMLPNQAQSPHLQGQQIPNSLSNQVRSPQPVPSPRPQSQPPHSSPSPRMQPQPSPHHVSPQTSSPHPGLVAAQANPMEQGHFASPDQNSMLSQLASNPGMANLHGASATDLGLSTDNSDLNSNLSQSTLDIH

[6] = Cmax in BALB/cAnNCrlCrlj mouse at 10 mg/kg,po; assay type: ADME, organism-based; set-up: dose 10 mg/kg, route po; settings: in vivo
[7] = Volume of distribution at steady state in BALB/cAnNCrlCrlj mouse at 1 mg/kg,iv administered as DMS0/10% SBE-7-betaCD (1:9 ratio) solution; assay type: ADME, organism-based; settings: in vivo, read-out: Vdss
[8] = Oral bioavailability in BALB/cAnNCrlCrlj mouse at 10 mg/kg; assay type: ADME, organism-based; settings: in vivo; for F: po, 10 mg/kg
[9] = Unbound AUC in BALB/cAnNCrlCrlj mouse at 10 mg/kg,po; assay type: ADME, organism-based; settings: in vivo
[10] = Unbound clearance in BALB/cAnNCrlCrlj mouse at 1 mg/kg,iv administered as DMS0/10% SBE-7-betaCD (1:9 ratio) solution; assay type: ADME, organism-based; settings: in vivo
[11] = Metabolic stability in mouse liver microsomes assessed as intrinsic clearance at 1 uM; assay type: ADME, Microsome
[12] = Unbound clearance in BALB/cAnNCrlCrlj mouse at 1 mg/kg,iv administered as DMA/Tween80/saline (1:1:8 ratio) solution; assay type: ADME, organism-based; settings: in vivo
[13] = Volume of distribution at steady state in BALB/cAnNCrlCrlj mouse at 1 mg/kg,iv administered as DMA/Tween80/saline (1:1:8 ratio) solution; assay type: ADME, organism-based; settings: in vivo, read-out: Vdss
[14] = Clearance in BALB/cAnNCrlCrlj mouse at 1 mg/kg,iv administered as DMA/Tween80/saline (1:1:8 ratio) solution; assay type: ADME, organism-based; settings: in vivo
[15] = biological target: T1, Histone acetyltransferase p300; assay: Inhibition of recombinant human full length EP300 assessed as inhibition of H4 peptide acetylation using biotinylated H4 peptide as substrate in presence of Acetyl-CoA incubated for 60 mins by TR-FRET assay
[16] = Unbound clearance in BALB/cAnNCrlCrlj mouse at 2 mg/kg,iv administered as DMA/Tween80/saline (1:1:8 ratio) solution; assay type: ADME, organism-based; settings: in vivo
[17] = Volume of distribution at steady state in BALB/cAnNCrlCrlj mouse at 2 mg/kg,iv administered as DMA/Tween80/saline (1:1:8 ratio) solution; assay type: ADME, organism-based; settings: in vivo, read-out: Vdss
[18] = BALB/cAnNCrlCrlj, read-out: AUC

Compound | logD at 0.5 h [1] | intrinsic clearance [2] [µL/min/mg] | half-life [3] [h] | IC50 [5] [nM] | Cmax [6] [nM] | intrinsic clearance (CLint) [11] [µL/min/mg] | further results
O=C(Nc1ccc2[nH]ncc2n1)[C@H]1C[C@@H](F)CN1C(=O)C1(c2ccc(O)cc2)CCCCC1 | 2.7 | 140 | 2.8 | 13 | 340 | – | AUC [4, 18]: 0.87 µM·h
COc1ccc(C2(C(=O)N3C[C@H](F)C[C@@H]3C(=O)Nc3ccc4[nH]ncc4n3)CCCCC2)cc1 | 3.1 | 310 | 1.4 | – | 10800 | 770 | Vd [7]: 0.29 L/kg; F [8]: 2.2%; fAUC [9]: 0.6 µM·h; CL free [10]: 133 mL/min/kg; AUC [4]: 15 µM·h
COc1ccc(C2(C(=O)N3C[C@H](F)C[C@@H]3C(=O)Nc3ccc4[nH]ncc4n3)CC(C)(C)C2)cc1 | 3.1 | 100 | – | 53 | – | 240 | –
O=C(Nc1ccc2[nH]ncc2n1)[C@H]1C[C@@H](F)CN1C(=O)C1(c2ccc(C(=O)C(F)(F)F)cc2)CCCCC1 | 3.4 | 150 | – | 21 | – | 380 | –
COc1c(F)cc(C2(C(=O)N3C[C@H](F)C[C@@H]3C(=O)Nc3ccc4[nH]ncc4n3)CCC(F)(F)CC2)cc1F | 3.2 | 60 | – | 142 | – | – | –
COc1ccc(C2(C(=O)N3CCC[C@@H]3C(=O)Nc3ccc4[nH]ccc4c3)CCCC2)cc1 | – | – | – | 709 | – | – | –
COc1ccc(C2(C(=O)N3C[C@H](F)C[C@@H]3C(=O)Nc3ccc4[nH]ncc4n3)CCCCC2)cc1F | 3.1 | 230 | 1.2 | 16 | 12700 | 400 | bioavailability ([8]; BALB/cAnNCrlCrlj): 62%; fAUC [9]: 1.39 µM·h; AUC [4, 18]: 16.8 µM·h; CL free [12]: 76 mL/min/kg; Vd [13]: 0.15 L/kg; clearance [14]: 6.3 mL/min/kg
COc1ccc(C2(C(=O)N3C[C@H](F)C[C@@H]3C(=O)Nc3ccc4[nH]ncc4n3)CCOCC2)cc1 | 1.6 | 10 | – | 101 | – | 50 | –
COc1ccc(C2(C(=O)N3CCC[C@@H]3C(=O)Nc3cccc4[nH]ccc34)CCCC2)cc1 | – | – | – | 304 | – | – | –
COc1ccc(C2(C(=O)N3CCC[C@@H]3C(=O)Nc3ccc4cn[nH]c4c3)CCCC2)cc1 | – | – | – | 2790 | – | – | IC50 [15]: 500 nM
COc1ccc(C2(C(=O)N3C[C@H](O)C[C@@H]3C(=O)Nc3ccc4[nH]ncc4n3)CCCCC2)cc1 | – | – | – | 106 | – | – | IC50 [15]: 50 nM
COc1ccc(C2(C(=O)N3C[C@H](F)C[C@@H]3C(=O)Nc3ccc4[nH]ncc4n3)CC(F)(F)C2)cc1 | 2.1 | 40 | 2.1 | 20 | 1610 | 120 | fAUC [9]: 0.268 µM·h; AUC [4, 18]: 2.29 µM·h
COc1ccc(C2(C(=O)N3CCC[C@@H]3C(=O)Nc3ccc4[nH]ncc4n3)CCCC2)cc1 | – | – | – | 52 | – | – | IC50 [15]: 24 nM
COc1ccc(C2(C(=O)N3C[C@H](F)C[C@@H]3C(=O)Nc3ccc4[nH]ncc4n3)CCCCC2)cn1 | 2.3 | 110 | – | 15 | – | 160 | –
COc1ccc(C2(C(=O)N3CS(=O)(=O)C[C@@H]3C(=O)Nc3ccc4[nH]ncc4n3)CCCCC2)cc1 | – | – | – | 27 | – | – | –
CS(=O)(=O)c1ccc(C2(C(=O)N3C[C@H](F)C[C@@H]3C(=O)Nc3ccc4[nH]ncc4n3)CCC(F)(F)CC2)cc1 | 1.6 | – | 1.5 | 95 | 90 | – | AUC [4, 18]: 0.23 µM·h; IC50 [15]: 55 nM
COc1ccc(C(C)(C)C(=O)N2C[C@H](F)C[C@@H]2C(=O)Nc2ccc3[nH]ncc3n2)cc1 | 1.9 | 10 | – | 77 | – | 380 | –
COc1ccc(C2(C(=O)N3CCOCC(Cc4cccc5[nH]ncc45)C3)CCCC2)cc1 (stereo not given) | – | – | 2 | – | 80 | – | F [8]: 31%; fAUC [9]: 0.006 µM·h; CL free [16]: 1740 mL/min/kg; Vd [17]: 1.76 L/kg; AUC [4]: 0.1 µM·h
COc1ccc(C2(C(=O)N3C[C@H](F)C[C@@H]3C(=O)Nc3ccc4[nH]ncc4n3)CCC(F)(F)CC2)cc1F | 3 | 40 | – | 57 | – | – | IC50 [15]: 36 nM
COc1ccc(C2(C(=O)N3CCC[C@@H]3C(=O)Nc3ccc4[nH]ncc4c3)CCCC2)cc1 | – | – | – | 916 | – | – | –
COc1ccc(C2(C(=O)N3CCC[C@@H]3C(=O)Nc3cccc4[nH]ncc34)CCCC2)cc1 | – | – | 0.6 | – | 320 | – | fAUC [9]: 0.029 µM·h; AUC [4, 18]: 0.42 µM·h
